Values after ≈ are worked out from the molar mass of the structure shown.
What was measured:
[1] = tested on: S. agalactiae^R (13B317), levofloxacin-resistant S. agalactiae; assay: MIC, broth microdilution (CLSI), clinical isolate; type: cell-based; conditions: Streptococcus agalactiae; levofloxacin-resistant S. agalactiae (13B317)
Description: (§1) 6 standard strains and 3 clinical isolates were used to the preliminary evaluation of in vitro antibacterial activities of oxazolidinone-fluoroquinolone hybrids. For the further evaluation of hybrids OBP-4 and OBP-5, 263 clinical isolates including S. aureus (46), S. haemolyticus(32), S. epidermidis (10), E. faecalis (72), E. faecium (47), S. pneumoniae (13), H. parasuis (34), S. suis (9), and 8 resistant strains including MRSA, MRSE, CIP-resistant S. aureus and S. haemolyticus, VAN and quinolone-resistant S. pneumoniae, LZD-resistant E. faecalis, LZD/VAN and quinolone-resistant E. faecium were collected and tested.
(§2) Susceptibility testing of oxazolidinone-fluoroquinolone hybrids against various bacteria was performed by the broth microdilution method as outlined by the Clinical and Laboratory Standards Institute (CLSI). Three types of media, including cation-adjusted Mueller Hinton broth, Haemophilus Test Medium and cation-adjusted Mueller Hinton broth that contained 3%–5% lysed horse blood, were used to culture the corresponding bacteria. All compounds including comparator drugs were dissolved in an appropriate solvent at a concentration of 2.048 mg/mL and then serially diluted two-fold to provide the required concentrations. A final inoculum of 5 × 10^5 CFU/mL was used and plates were read after incubation for 16–24 h at 35 °C. […] Standard quality control strains (ATCC) were included throughout. Each determination was repeated in triplicate.

MRSA (13B262) = assay: MIC, broth microdilution (CLSI), clinical isolate; type: cell-based; conditions: Staphylococcus aureus
Description: as §1, §2

VRE (13B330) = assay: MIC, broth microdilution (CLSI), clinical isolate; type: cell-based, vancomycin-resistant enterococcus; conditions: Enterococcus
Description: as §1, §2

[2] = tested on: S. pneumoniae (ATCC49619); assay: MIC, broth microdilution (CLSI), standard strain; type: cell-based; conditions: Streptococcus pneumoniae
Description: as §1, §2

[3] = tested on: P. Aeruginosa (ATCC27853); assay: MIC, broth microdilution (CLSI), standard strain; type: cell-based; conditions: Pseudomonas aeruginosa; P. Aeruginosa (ATCC27853); read-out: MIC
Description: as §1, §2

S. aureus (ATCC29213) = assay: MIC, broth microdilution (CLSI), standard strain; type: cell-based; conditions: Staphylococcus aureus
Description: as §1, §2

E. faecalis (ATCC29212) = assay: MIC, broth microdilution (CLSI), standard strain; type: cell-based; conditions: Enterococcus faecalis; E. faecalis (ATCC29212); read-out: MIC
Description: as §1, §2

[4] = tested on: H. influenzae (ATCC49247); assay: MIC, broth microdilution (CLSI), standard strain; type: cell-based; conditions: Haemophilus influenzae
Description: as §1, §2

E. coli (ATCC25922) = assay: MIC, broth microdilution (CLSI), standard strain; type: cell-based; conditions: Escherichia coli; E. coli (ATCC25922); read-out: MIC
Description: as §1, §2

[5] = tested on: S. pneumoniae (13) clinical isolates; assay: Susceptibility of clinical isolates (MIC); type: cell-based, Streptococcus pneumoniae
Procedure: as §2, with “All compounds including comparator drugs were dissolved in an appropriate solvent at a concentration of 2.048 mg/mL and then serially diluted two-fold to provide the required concentrations.” left out

[6] = tested on: H. parasuis (34) clinical isolates; assay: Susceptibility of clinical isolates (MIC); type: cell-based, Haemophilus parasuis; conditions: Glaesserella parasuis
Procedure: as §2, with “All compounds including comparator drugs were dissolved in an appropriate solvent at a concentration of 2.048 mg/mL and then serially diluted two-fold to provide the required concentrations.” left out

[7] = tested on: LZD-resistant E. faecalis; assay: microbe, parasite or virus in culture; type: cell-based; conditions: Enterococcus faecalis
Procedure: (§3) 6 standard strains and 3 clinical isolates were used to the preliminary evaluation of in vitro antibacterial activities of oxazolidinone-fluoroquinolone hybrids.
as §2, with “All compounds including comparator drugs were dissolved in an appropriate solvent at a concentration of 2.048 mg/mL and then serially diluted two-fold to provide the required concentrations.” left out

[8] = tested on: S. epidermidis (10) clinical isolates; assay: Susceptibility of clinical isolates (MIC); type: cell-based, Staphylococcus epidermidis
Procedure: as §2, with “All compounds including comparator drugs were dissolved in an appropriate solvent at a concentration of 2.048 mg/mL and then serially diluted two-fold to provide the required concentrations.” left out

[9] = tested on: S. aureus (46) clinical isolates; assay: Susceptibility of clinical isolates (MIC); type: cell-based, Staphylococcus aureus
Procedure: as §2, with “All compounds including comparator drugs were dissolved in an appropriate solvent at a concentration of 2.048 mg/mL and then serially diluted two-fold to provide the required concentrations.” left out

[10] = tested on: E. faecium (47) clinical isolates; assay: Susceptibility of clinical isolates (MIC); type: cell-based, Enterococcus faecium
Procedure: as §2, with “All compounds including comparator drugs were dissolved in an appropriate solvent at a concentration of 2.048 mg/mL and then serially diluted two-fold to provide the required concentrations.” left out

MRSE = assay: MIC against drug-resistant strain; type: cell-based, S. epidermidis; conditions: Staphylococcus epidermidis
Procedure: as §3
as §2, with “All compounds including comparator drugs were dissolved in an appropriate solvent at a concentration of 2.048 mg/mL and then serially diluted two-fold to provide the required concentrations.” left out

[11] = tested on: S. suis (9) clinical isolates; assay: Susceptibility of clinical isolates (MIC); type: cell-based, Streptococcus suis; conditions: Streptococcus suis
Procedure: as §2, with “All compounds including comparator drugs were dissolved in an appropriate solvent at a concentration of 2.048 mg/mL and then serially diluted two-fold to provide the required concentrations.” left out

[12] = tested on: S. haemolyticus (32) clinical isolates; assay: Susceptibility of clinical isolates (MIC); type: cell-based, Staphylococcus haemolyticus
Procedure: as §2, with “All compounds including comparator drugs were dissolved in an appropriate solvent at a concentration of 2.048 mg/mL and then serially diluted two-fold to provide the required concentrations.” left out

[13] = tested on: CIP-resistant S. haemolyticus; assay: MIC against drug-resistant strain; type: cell-based; conditions: Staphylococcus haemolyticus
Procedure: as §3
as §2, with “All compounds including comparator drugs were dissolved in an appropriate solvent at a concentration of 2.048 mg/mL and then serially diluted two-fold to provide the required concentrations.” left out

[14] = tested on: VAN and quinolone-resistant E. faecium; assay: MIC against drug-resistant strain; type: cell-based; conditions: Enterococcus faecium
Procedure: as §3
as §2, with “All compounds including comparator drugs were dissolved in an appropriate solvent at a concentration of 2.048 mg/mL and then serially diluted two-fold to provide the required concentrations.” left out

CIP-resistant S. aureus = assay: MIC against drug-resistant strain; type: cell-based; conditions: Staphylococcus aureus
Procedure: as §3
as §2, with “All compounds including comparator drugs were dissolved in an appropriate solvent at a concentration of 2.048 mg/mL and then serially diluted two-fold to provide the required concentrations.” left out

[15] = tested on: LZD and quinolone-resistant E. faecium; assay: MIC against drug-resistant strain; type: cell-based; conditions: Enterococcus faecium
Procedure: as §3
as §2, with “All compounds including comparator drugs were dissolved in an appropriate solvent at a concentration of 2.048 mg/mL and then serially diluted two-fold to provide the required concentrations.” left out

[16] = tested on: VAN and quinolone-resistant S. pneumoniae; assay: MIC against drug-resistant strain; type: cell-based; conditions: Streptococcus pneumoniae
Procedure: as §3
as §2, with “All compounds including comparator drugs were dissolved in an appropriate solvent at a concentration of 2.048 mg/mL and then serially diluted two-fold to provide the required concentrations.” left out

MRSA = assay: MIC against drug-resistant strain; type: cell-based; conditions: Staphylococcus aureus
Procedure: as §3
as §2, with “All compounds including comparator drugs were dissolved in an appropriate solvent at a concentration of 2.048 mg/mL and then serially diluted two-fold to provide the required concentrations.” left out

Structure (SMILES): CN1COc2c(N3CC4C(C3)C4Nc3ccc(N4C[C@H](CO)OC4=O)cc3F)c(F)cc3c(=O)c(C(=O)O)cn1c23 (some centres unmarked) [OBP-6]
- MIC [1]: 2 µg/mL (≈ 3.51 µM)
- MIC (MRSA (13B262)): 64 µg/mL (≈ 112 µM)
- MIC (VRE (13B330)): 64 µg/mL (≈ 112 µM)
- MIC [2]: 0.5 µg/mL (≈ 0.878 µM)
- MIC [3]: 16 µg/mL (≈ 28.1 µM)
- MIC (S. aureus (ATCC29213)): 0.062 µg/mL (≈ 0.109 µM)
- MIC (E. faecalis (ATCC29212)): 4 µg/mL (≈ 7.02 µM)
- MIC [4]: 0.016 µg/mL (≈ 0.0281 µM)
- MIC (E. coli (ATCC25922)): 1 µg/mL (≈ 1.76 µM)

Structure (SMILES): O=C(O)c1cn(C2CC2)c2cc(N3CC4C(C3)C4Nc3ccc(N4C[C@H](CO)OC4=O)cc3F)c(F)cc2c1=O (some centres unmarked) [OBP-7]
- MIC [1]: 4 µg/mL (≈ 7.24 µM)
- MIC (MRSA (13B262)): 128 µg/mL (≈ 232 µM)
- MIC (VRE (13B330)): 128 µg/mL (≈ 232 µM)
- MIC [2]: 2 µg/mL (≈ 3.62 µM)
- MIC [3]: 64 µg/mL (≈ 116 µM)
- MIC (S. aureus (ATCC29213)): 0.25 µg/mL (≈ 0.452 µM)
- MIC (E. faecalis (ATCC29212)): 1 µg/mL (≈ 1.81 µM)
- MIC [4]: 0.031 µg/mL (≈ 0.0561 µM)
- MIC (E. coli (ATCC25922)): 0.5 µg/mL (≈ 0.905 µM)

Structure (SMILES): CN[C@H](CC(C)C)C(=O)N[C@H]1C(=O)N[C@@H](CC(N)=O)C(=O)N[C@H]2C(=O)N[C@H]3C(=O)N[C@H](C(=O)N[C@H](C(=O)O)c4cc(O)cc(O)c4-c4cc3ccc4O)[C@H](O)c3ccc(c(Cl)c3)Oc3cc2cc(c3O[C@@H]2O[C@H](CO)[C@@H](O)[C@H](O)[C@H]2O[C@H]2C[C@](C)(N)[C@H](O)[C@H](C)O2)Oc2ccc(cc2Cl)[C@H]1O [VAN, vancomycin]
- CLSI %S (susceptible) ([5]; S. pneumoniae clinical isolates, CLSI criteria): 53.8/- %
- MIC50 ([5]; Streptococcus pneumoniae): 1 µg/mL (≈ 0.69 µM)
- MIC90 ([5]; Streptococcus pneumoniae): 32 µg/mL (≈ 22.1 µM)
- MIC50 [6]: 8 µg/mL (≈ 5.52 µM)
- MIC90 [6]: > 32 µg/mL
- MIC [7]: 2 µg/mL (≈ 1.38 µM)
- CLSI %S (susceptible) ([8]; S. epidermidis clinical isolates, CLSI criteria): 100.0/- %
- MIC50 ([8]; Staphylococcus epidermidis): 1 µg/mL (≈ 0.69 µM)
- MIC90 ([8]; Staphylococcus epidermidis): 2 µg/mL (≈ 1.38 µM)
- MIC ([8]; Staphylococcus epidermidis, read-out: MIC Range): 1 to 2 µg/mL (≈ 0.69 to 1.38 µM)
- CLSI %S (susceptible) ([9]; S. aureus clinical isolates, CLSI criteria): 100.0/- %
- MIC50 ([9]; Staphylococcus aureus): 0.5 µg/mL (≈ 0.345 µM)
- MIC90 ([9]; Staphylococcus aureus): 0.5 µg/mL (≈ 0.345 µM)
- MIC ([9]; Staphylococcus aureus, read-out: MIC Range): 0.25 to 0.5 µg/mL (≈ 0.173 to 0.345 µM)
- CLSI %S (susceptible) ([10]; E. faecium clinical isolates, CLSI criteria): 100.0/- %
- MIC Range ([10]; E. faecium, 47 clinical isolates): 0.5 to 4 µg/mL
- MIC50 ([10]; Enterococcus faecium): 2 µg/mL (≈ 1.38 µM)
- MIC90 ([10]; Enterococcus faecium): 4 µg/mL (≈ 2.76 µM)
- MIC (MRSE): 1 µg/mL (≈ 0.69 µM)
- MIC50 [11]: 0.25 µg/mL (≈ 0.173 µM)
- MIC90 [11]: 2 µg/mL (≈ 1.38 µM)
- MIC ([11]; read-out: MIC Range): 0.125 to 2 µg/mL (≈ 0.0863 to 1.38 µM)
- CLSI %S (susceptible) ([12]; S. haemolyticus clinical isolates, CLSI criteria): 96.2/- %
- MIC50 ([12]; Staphylococcus haemolyticus): 0.5 µg/mL (≈ 0.345 µM)
- MIC90 ([12]; Staphylococcus haemolyticus): 2 µg/mL (≈ 1.38 µM)
- MIC ([12]; Staphylococcus haemolyticus, read-out: MIC Range): 0.0625 to 4 µg/mL (≈ 0.0431 to 2.76 µM)
- MIC [13]: 2 µg/mL (≈ 1.38 µM)
- MIC [14]: 16 µg/mL (≈ 11 µM)
- MIC (CIP-resistant S. aureus): 0.25 µg/mL (≈ 0.173 µM)
- MIC [15]: 4 µg/mL (≈ 2.76 µM)
- MIC [16]: > 32 µg/mL
- MIC (MRSA): 1 µg/mL (≈ 0.69 µM)

Reference: PMC6514978, “Synthesis, Antibacterial Activities, Mode of Action and Acute Toxicity Studies of New Oxazolidinone-Fluoroquinolone Hybrids” (Molecules, 2019)
